One compound from patent publication US9296687B2, “Modulators of HSP70/DnaK function and methods of use thereof” (The Trustees of the University of Pennsylvania, priority 2008, dated 2016) can be followed below.

One test relates to p62/SQSTM1, LC3. The test is described as follows: Autophagy markers in cultured cells (vacuoles, LC3-II, p62/SQSTM1, electron microscopy). Format: cell-based, human.
Another test concerns 20S proteasome. In words: Cell-based 20S proteasome activity assay. More on the design: species or system human. The settings on record: H1299 or A875 cells; PES 20 μM, 17-AAG 1 μM, CQ 5 μM.
A further test concerns the target DnaK (Escherichia coli, UniProt P0A6Y8). In words: Identification of B-PES interacting protein in bacteria by LC-tandem MS. The settings on record: E. coli DH5α, 50 μM B-PES, 3 h.
For the next test, the system named is MiaPaCa2 cells. In words: Pulse-chase of newly synthesized proteins. Format: cell-based, human. The settings on record: 20 μM, 3 h chase. The protocol:
FIG. 13. Cycloheximide Reduces PES-Induced Cytoplasmic Vacuolization. (A) Representative phase-contrast images of indicated tumor cell lines pretreated with DMSO or 1 μg/ml of cycloheximide (CHX) for 1 h, followed by the addition of 20 μM PES for 23 h. (B) The molecular chaperone HSP70 has been implicated in promoting proper folding of nascent polypeptides. […] Briefly, MiaPaCa2 cells were incubated in methionine/cysteine starvation medium for 30 min before adding [^35S]methionine/cysteine and DMSO or [^35S]methionine/cysteine and 20 μM PES, as indicated, to pulse for 1 h. Following the pulse, cells were immediately chased by complete medium for 0, 0.5, or 3 h, either in the presence of DMSO or 20 μM PES, as indicated. Cells were harvested at indicated time points, lysed in 1% NP40-containing buffer, and fractionated into detergent-soluble and detergent-insoluble preparations.
The cells were seeded at ˜50% confluency in 10 ml of DMEM/10% FBS/1× Pen-Strep using 100 mm dish. Next day, the cells were washed extensively in PBS and starved in “methionine/cysteine-free DMEM” (Invitrogen SKU#21013-024) with 5% dialyzed FBS and 1× Pen/Strep for 30 min. Either [^35S] Methionine/Cysteine (500 μCi) and DMSO or [^35S] Methionine/Cysteine (500 μCi) and 20 μM PES were added to the cells for 1 h. The cells were washed extensively to remove [^35S] […]

Another test concerns cathepsin L. In words: Western blot of cathepsin L processing. Format: cell-based, human. The note with it: 20 μM, 24 h. Background: Immunoblotting shows a protein as a band on a membrane.
Test [1] concerns H1299 and FaDu; 6113 and WI38. In words: MTT assay, tumorogenic versus normal fibroblast cell lines. Format: cell-based, human. The settings on record: various concentrations, 48 hours. The procedure: H1299 cells were seeded on […] and treated with 10 μM PES or 10 μM PES-Cl. DMSO treated cells were used as a control and the proliferation of the H1299 cells was observed over 24 and 48 hours of treatment. The cells were imaged by light microscopy with 20× magnification (FIG. 28). Non-tumorogenic and tumorogenic cells were then treated with PES-Cl to observe its toxicity and effect on proliferation. Two tumorogenic cell lines (H1299 and FaDu) and two normal fibroblast cell lines (6113 and WI38) were seeded on a 96-well plate. The cells were treated with various concentrations of PES and PES-Cl. Forty-eight hours post-treatment MTT assays (Cayman Chemical Company) were performed (FIG. 29).

In another test the test system is FADU cells. The test is described as follows: Colony formation assay with gamma radiation. Format: cell-based, human. The settings on record: PES 10 μM + 10 Gy. The protocol:
(§1) Fadu or Scc 61 (squamous cell carcinoma of the head and neck) cell lines were grown in DMEM supplemented with 10% fetal bovine serum and antibiotics. Cells were pre-treated with PES (10 μM) for 24 hr after which they were subject to gamma radiation (either 2 or 10 Gy) and plated at different densities in 6 well plates; the wells depicted were plated at 2000 cells/well. After 10 days, colonies were stained with crystal violet.

For a further test, the system named is Scc61 cells. The test is described as follows: Colony formation assay with gamma radiation. Format: cell-based, human. The note with it: PES + 2 Gy. The procedure:
as §1

A further test concerns Eμ-Myc transgenic mice. The test is described as follows: Eμ-Myc mouse model of lymphomagenesis. Format: in vivo. The protocol: To evaluate the efficacy of PES as a chemopreventative agent, Eμ-Myc transgenic mice were injected every 5 days, starting at 8 weeks of age, with either vehicle or PES (40 mg/kg) prepared in PBS. All animals received a total of 7 injections, either with PES or vehicle. Consequently, no injection was given after day 86. All mice were observed daily for signs of morbidity and the development of lymphoma. All experiments with mice were approved by, and conformed to, the guidelines of the Institutional Animal Care and Use Committee of the Fox Chase Cancer Center. These mice may also be used to advantage to test the beneficial therapeutic combinations of agents and/or treatments described herein.
Beginning at 6 weeks of age, Eμ-myc transgenic mice were treated either with vehicle, 20 mg/kg PES or 20 mg/kg PES-Cl with weekly i.p. injections of tested compound (FIG. 27).

DnaK, sequence (P0A6Y8 whole entry): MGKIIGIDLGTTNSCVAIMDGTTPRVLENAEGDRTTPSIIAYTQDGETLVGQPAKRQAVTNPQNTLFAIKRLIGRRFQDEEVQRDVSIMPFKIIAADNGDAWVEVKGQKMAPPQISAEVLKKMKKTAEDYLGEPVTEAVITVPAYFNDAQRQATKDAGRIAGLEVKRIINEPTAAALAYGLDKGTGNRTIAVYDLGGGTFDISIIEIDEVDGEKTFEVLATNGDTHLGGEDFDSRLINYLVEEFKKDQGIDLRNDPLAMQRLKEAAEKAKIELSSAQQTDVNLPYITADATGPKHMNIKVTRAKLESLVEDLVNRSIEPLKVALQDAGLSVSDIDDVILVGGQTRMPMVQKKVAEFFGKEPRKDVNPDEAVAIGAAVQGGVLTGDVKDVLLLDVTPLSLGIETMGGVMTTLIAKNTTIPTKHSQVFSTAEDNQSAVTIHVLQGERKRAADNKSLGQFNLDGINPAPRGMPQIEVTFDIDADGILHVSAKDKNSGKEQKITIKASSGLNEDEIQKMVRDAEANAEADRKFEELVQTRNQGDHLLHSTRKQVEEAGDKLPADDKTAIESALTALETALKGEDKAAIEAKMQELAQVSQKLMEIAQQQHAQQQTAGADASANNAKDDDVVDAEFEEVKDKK

Regarding `NS(=O)(=O)C#Cc1ccccc1` [PES, 2-Phenylethynesulfonamide], the LC3-II level entry in the test on p62/SQSTM1, LC3 (20 μM) is on record as “higher levels of LC3-II”. In addition, in the test with p62/SQSTM1, LC3 (20 μM, 7 or 24 h), the “autophagosomes and autophagolysosomes by electron microscopy” value was “rapid and substantial increase in multiple double-membrane autophagosomes and single-membrane autophagolysosomes”. In addition, the intracytoplasmic vacuoles entry in the test on p62/SQSTM1, LC3 (24 h) was “progressive accumulation of intracytoplasmic vacuoles”. The “p62/SQSTM1 oligomers in soluble and detergent-insoluble fractions” value in the test with p62/SQSTM1, LC3 (24 h, PES 20 μM, Velcade 100 nM, CQ 50 μM, 17-AAG 15 nM) was “higher molecular weight forms of p62/SQSTM1 in both the soluble and detergent-insoluble fractions”. The “p62/SQSTM1 accumulation and oligomerization” value in the test on p62/SQSTM1, LC3 (H1299 cells, increasing concentrations, 24 h) was “notable increase in p62/SQSTM1 accumulation and oligomerization”. Besides, in the test with p62/SQSTM1, LC3 (IMR90 cells, 24 h), the “p62 oligomerization and LC3-II accumulation” value was “only a modest degree of p62 oligomerization and LC3-II accumulation”. In addition, the “interaction between LC3 and p62/SQSTM1” value in the test on p62/SQSTM1, LC3 (IP-WB, MiaPaCa2, A875) is on record as “enhanced the interaction”. The “accumulation and oligomerization of p62/SQSTM1” value in the test with p62/SQSTM1, LC3 (western blot) was “promotes an accumulation and oligomerization of p62/SQSTM1 in a time- and dose-dependent manner”. The “activity of the 20S proteasome” value in the test with 20S proteasome is listed as “impairs the activity of the 20S proteasome”. The “interaction with DnaK” value at DnaK is recorded as “interacts with DnaK”. Besides, the “newly-synthesized proteins in the detergent-insoluble fraction” value with MiaPaCa2 cells was “increase in the newly-synthesized proteins in the detergent-insoluble fraction”. In addition, the “processing of cathepsin L” value in the test on cathepsin L was “accumulation of the precursor pro-cathepsin L and a markedly reduced abundance of the smaller, mature form of the enzyme”. For the same compound, the “cell survival, tumorogenic versus non-tumorogenic cells” value in [1] was “greater concentration dependent effect on cell survival in tumorogenic cells”. Moreover, the “colony formation with radiation” value in the test with FADU cells is recorded as “combine effectively to reduce the capacity to form colonies”; in the test with Scc61 cells it was “effectively diminished the capacity of these cells to form colonies”. The tumor development result with Eμ-Myc transgenic mice (40 mg/kg i.p. once every five days for 30 days) is recorded as “markedly impaired tumor development”. The “overall mean survival time” value with Eμ-Myc transgenic mice (40 mg/kg intra-peritoneally every 5 days for 30 days) is recorded as over 140 days.
